A short description of assay [1]: NO-selectivity of depressor responses before and after maximal NOS blockade with L-NAME. Type of assay: in vivo, rat. Conditions: for Change in Depressor Response: after vs before 100 mg/kg L-NAME; for Δ MAP L-NAME 100 mg/kg (mmHg): depressor agent after maximal NOS blockade with 100 mg/kg L-NAME; for Δ MAP Control (mmHg): depressor agent before L-NAME. On the procedure:
(§1) Determination of MAP: Three days after surgery, MAP was recorded (PowerLab/8s DAS, ADInstruments, Milford, Mass.). […] An equilibration period of at least 1 hour was allowed prior to any experimentation to establish a steady baseline. […] Mean arterial pressure (MAP) and heart rate (HR) were calculated as an average over five minutes for steady state conditions and 10 seconds for transient drug responses.
Hypersensitivity to NO-mimetics following NOS blockade is shown to be the result of a specific interaction between ET and depressor agents that target the NO pathway. To confirm the specificity of this interaction, dose responses to a variety of depressor agents targeting both NO-dependent and NO-independent pathways were performed before and after maximal NOS blockade with 100 mg/kg L-NAME. One dose of each depressor agent that decreased MAP by approximately 10 mmHg was chosen for analysis. The agents compared were SNP ([…]; 30 s infusion), 8-bromo-cGMP (8-Br-cGMP; 3000 mg/kg/min; cumulative from 30, 100, 300, 1000, 3000 dose response, 2 min infusion, 3 min between doses), bradykinin (30 mg/kg/min; 30 s infusion), PGE1 ([…]; cumulative dose response, 20 min/dose) and INE (0.2 mg/kg/min; 30 s infusion).

A short description of assay [2]: Mean arterial pressure (MAP) in conscious catheterised rats after drug treatment. The format is in vivo, rat. The settings on record: for Δ MAP (from initial baseline; mmHg): Table 3, L-NAME 3 mg/kg in the triple combination; for MAP after terazosin treatment: terazosin 2 mg/kg i.v., SB209670 treated animals (label SB209670) vs animals without SB209670 (label terazosin). On the procedure: Animals: Male Sprague-Dawley rats (250-300 g) from Charles River Laboratories (St. Constant, Quebec) were individually housed under conditions of 12-hour light/dark cycle at a room temperature of 22-24° C. Purina® rodent chow and tap water were provided ad libitum. Rats were housed for at least one day prior to catheter implantation and allowed a minimum of 3 days to recover from the surgery before any experiments. […] Experiments were performed in accordance with standards established by the Canadian Council of Animal Care.
Surgery: The surgical technique was based on that described by Thompson et al. (Hypertension. 20(6):809-815, 1992). In brief, rats were anaesthetized with Hypnorm®/Nersed® (1:2:1 ratio of Hypnorm®:H2O:Versed® at a dose rate of 3 ml/kg i.p.). […] An additional catheter sat loosely in the abdominal cavity for intra-peritoneal administration of drugs. All catheters were tunneled subcutaneously, exteriorized at the nape of the neck and sutured into place. The catheters were filled with heparin saline (50 IU/ml) and sealed at the exposed end.
as §1
The NOS antagonist L-NAME was administered in increasing doses (1,3,10,30 mg/kg i.v.). MAP was measured after each dose when pressure reached steady state (10 min).

Assay [3] can be described thus: Vascular reactivity: depressor response to NO-mimetic sodium nitroprusside (SNP) infusion. Type of assay: in vivo, rat. Conditions: for Change in Vascular Response to SNP: Table 3; for depressor response to SNP: treatment alone at maximal blockade (L-NAME 30 mg/kg), SNP 1-30 μg/kg/min i.v.; for depressor response to SNP in the presence of L-NAME: treatment combined with L-NAME 3 and 30 mg/kg. On the procedure:
as §1
(§2) Data Analysis: Dose responses to N^ω-nitro-L-arginine-methyl ester (L-NAME, Sigma, Mo.) in terazosin- or prazosin-treated animals vs control were compared using unpaired, two-tailed t-test for each dose. […] In all cases a p value less than 0.05 was considered to be statistically significant.
This set of experiments examined whether alpha-adrenoceptor antagonism and/or complete removal of α-signaling could also alter vascular reactivity to exogenous NO. […] Reactivity was then determined following minimal and maximal NOS blockade by administration of a low dose followed by a high dose of L-NAME (3 and 30 mg/kg L-NAME i.v., respectively). […] In these animals additional dose responses to each NO-donor were performed after initial alpha-adrenoceptor antagonism and before L-NAME treatment. Further assessment of the impact of removal of α1-adrenoceptor signaling was made through ganglionic blockade with hexamethonium (30 mg/kg i.v.). Down-stream sympathetic signaling is effectively abolished by completely blocking the ganglia with hexamethonium.

The conditions of assay [4]: compared with the placebo group; cited from earlier work.
Assay [5] can be described thus: Overshoot and rate of recovery of MAP following 30 second SNP depressor challenge. The format is in vivo, rat. Conditions: for Overshoot (mmHg) of MAP relative to control response: following SNP (10 μg/kg/min) depressor challenge, maximal blockade, 3 mg/kg L-NAME in TRZ combinations; for Rate of Recovery (mmHg/s): following SNP (30 μg/kg/min) depressor challenge, 10 second interval after onset of recovery; for Overshoot: Change vs Control: following SNP (10 mg/kg/min) depressor challenge; for Rate of Recovery: Change vs Control: following SNP (30 mg/kg/min) depressor challenge. On the procedure: as §1
In Examples 2, 3 and 4, we used a 30 second infusion of SNP to induce a transient depressor response (less than 1 minute) in order to assess mechanisms involved in homeostatic adjustment, in each case comparing treatment to the respective control response (FIG. 8, Table 3). […] In contrast, after α1-adrenoceptor antagonism the response to the depressor challenge was altered such that there was a marked overshoot of MAP above baseline during the recovery phase. In some instances MAP took in excess of five minutes to return to baseline following the overshoot. […] This response was unchanged by NOS antagonism (FIG. 8b) and RAS inhibition (FIG. 8c).
In addition, we characterized the rate of recovery of MAP as determined by the upward slope of the arterial blood pressure trace during a 10 second interval immediately after the onset of recovery (Table 4). […] In contrast, the combination of alpha-blockade and NOS antagonism doubled the magnitude of the recovery slope.

A short description of assay [6]: Vascular reactivity: depressor response to NO-mimetic glyceryl trinitrate (GTN) infusion. The format is in vivo, rat. On the procedure: as §1, §2
NOS blockade hypertension also results in a hypersensitivity to NO-mimetics such as SNP and GTN. This set of experiments examined whether alpha-adrenoceptor antagonism and/or complete removal of α-signaling could also alter vascular reactivity to exogenous NO. Dose response curves to 30 second infusions of the NO-mimetics sodium nitroprusside (1-30 μg/kg/min SNP i.v.) or glyceryl trinitrate (25-1600 μg/kg/min GTN i.v.) were generated in control animals to determine normal vasodilatory reactivity to exogenous NO. Reactivity was then determined following minimal and maximal NOS blockade by administration of a low dose followed by a high dose of L-NAME (3 and 30 mg/kg L-NAME i.v., respectively). […] In these animals additional dose responses to each NO-donor were performed after initial alpha-adrenoceptor antagonism and before L-NAME treatment. Further assessment of the impact of removal of α1-adrenoceptor signaling was made through ganglionic blockade with hexamethonium (30 mg/kg i.v.). Down-stream sympathetic signaling is effectively abolished by completely blocking the ganglia with hexamethonium. After establishment of a control dose response to SNP, maximal ganglionic blockade was induced and MAP was allowed to reach a steady state. The vascular reactivity to SNP was reassessed after hexamethonium alone and following both a low then high dose of L-NAME (3 and 30 mg/kg L-NAME i.v., respectively).

[7] abbreviates: treatment alone at maximal blockade (L-NAME 30 mg/kg), GTN 25-1600 μg/kg/min i.v.

Each structure is given as a SMILES string.

Consider `CCCCC[C@H](O)/C=C/[C@H]1[C@H](O)CC(=O)[C@@H]1CCCCCCC(=O)O` [PGE1], for which, in assay [1], the “Change in Depressor Response” value was “←→”, the “Δ MAP L-NAME 100 mg/kg (mmHg)” value is on record as −15.51 ± 9.74 mmHg and the “Δ MAP Control (mmHg)” value was −15.21 ± 5.72 mmHg.

For `C[N+](C)(C)CCCCCC[N+](C)(C)C` [Hexamethonium, hexamethonium], the “Δ MAP (from initial baseline; mmHg)” value in assay [2] is given as −18 ± 10.0 mmHg. In assay [3], the “Change in Vascular Response to SNP” value is recorded as “↑”, the “depressor response to SNP” value is “induced an almost identical pattern of hypersensitivity” and the “depressor response to SNP in the presence of L-NAME” value was “further enhanced”.

On to `COc1cc2nc(N3CCN(C(=O)c4ccco4)CC3)nc(N)c2cc1OC` [prazosin], for which the “lowering of MAP after alpha-adrenoceptor antagonist” value in assay [2] (prazosin 3 mg/kg i.v. or terazosin 2 mg/kg i.v., steady state, conscious rats) is 36.35±13.96 mmHg. Also, in assay [4], the “mortality among patients with chronic congestive heart failure” value was “the same”.

Regarding `CCCCc1nc(Cl)c(CO)n1Cc1ccc(-c2ccccc2-c2nn[nH]n2)cc1` [losartan], the “depressor response to SNP” value in assay [3] was “failed to increase the sensitivity”.

With `CCCOc1ccc2c(c1)[C@@H](c1ccc(OC)cc1OCC(=O)O)[C@H](C(=O)O)[C@H]2c1ccc2c(c1)OCO2` [SB209670], in assay [2] (SB209670 alone), the “effect on MAP vs control” value is “did not lower MAP significantly”. The compound further displayed an MAP in assay [2] (SB209670 i.v. bolus then 100 μg/kg/min infusion, alone, control 98.29±6.43) of 90.41±4.36 mmHg. Further, the “MAP after terazosin treatment” value in assay [2] is given as 51.83±4.02 mmHg. Further, the “enhanced SNP response with terazosin combined with moderate NOS antagonism” value in assay [3] (terazosin 2 mg/kg + L-NAME 3 mg/kg + SB209670) was “prevented”. Further, the “dose response to SNP after terazosin treatment” value in assay [3] (terazosin 2 mg/kg i.v. in animals receiving SB209670) was “significantly blunted”. Besides, in assay [5] (co-administration with alpha-adrenoceptor antagonist with or without NOS antagonist), the “overshoot of MAP in treatment groups demonstrating overshoot” value is listed as “abolished”. In assay [5], the “Overshoot (mmHg) of MAP relative to control response” value was 0.5 ± 4.98 mmHg, the “Rate of Recovery (mmHg/s)” value is given as 1.4 ± 1.00 mmHg/s, the “Overshoot: Change vs Control” value is “←→” and the “Rate of Recovery: Change vs Control” value is reported as “←→”.

For the compound `COC(=O)[C@@H](N)CCCNC(=N)N[N+](=O)[O-]` [L-NAME, N^ω-nitro-L-arginine-methyl ester], the “Δ MAP (from initial baseline; mmHg)” value in assay [2] was 36 ± 11.1 mmHg. Further, in assay [3], the “Change in Vascular Response to SNP” value is “↑” and the “depressor response to SNP” value is given as “enhanced”. Moreover, the “vascular reactivity to GTN” value in assay [6] (moderate NOS blockade, 3 mg/kg L-NAME alone) is on record as “did not produce a significant change”. Moreover, the “depressor response to GTN” value in assay [6] (setting [7]) is listed as “enhanced”. Moreover, in assay [5], the “Overshoot (mmHg) of MAP relative to control response” value is listed as −1.6 ± 3.68 mmHg, the “Rate of Recovery (mmHg/s)” value came out at 1.2 ± 0.73 mmHg/s, the “Overshoot: Change vs Control” value is listed as “←→” and the “Rate of Recovery: Change vs Control” value is listed as “←→”.

On to `COc1cc2nc(N3CCN(C(=O)C4CCCO4)CC3)nc(N)c2cc1OC` (stereo not drawn) [Terazosin, terazosin], for which, in assay [2], the “Δ MAP (from initial baseline; mmHg)” value is on record as −28 ± 18.5 mmHg and the “MAP after terazosin treatment” value was found to be 77.37±17.48 mmHg. Further, in assay [2] (losartan + enalaprilat 30 mg/kg i.p. 1:1 vs terazosin alone), the “decrease in MAP” value is on record as 28.09±18.49. In assay [3], the “Change in Vascular Response to SNP” value was “↑”, the “depressor response to SNP” value was “enhanced” and the “depressor response to SNP in the presence of L-NAME” value is recorded as “enhanced relative to control”. Moreover, the “depressor response to GTN” value in assay [6] (terazosin combined with moderate NOS blockade (3 mg/kg L-NAME)) is given as “significantly enhanced”. The “depressor response to GTN” value in assay [6] (setting [7]) is “only statistically significant at the highest dose of GTN”. In assay [5], the “Overshoot (mmHg) of MAP relative to control response” value is listed as 45 ± 5.19 mmHg, the “Rate of Recovery (mmHg/s)” value is 1.2 ± 0.42 mmHg/s, the “Overshoot: Change vs Control” value is reported as “↑” and the “Rate of Recovery: Change vs Control” value was “←→”.

Turning to `CC(C)NCC(O)c1ccc(O)c(O)c1` (stereo not drawn) [Isopropyl-norepinephrine (INE), Isopropyl-norepinephrine], in assay [1], the “Change in Depressor Response” value was “←→”, the “Δ MAP L-NAME 100 mg/kg (mmHg)” value is −10.52 ± 4.04 mmHg and the “Δ MAP Control (mmHg)” value is −9.42 ± 7.38 mmHg.

For the compound `Nc1nc2c(nc(Br)n2[C@@H]2O[C@@H]3COP(=O)(O)O[C@H]3[C@H]2O)c(=O)[nH]1` [8-Br-cGMP, 8-bromo-cyclic-GMP], in assay [1], the “Change in Depressor Response” value is given as “↑↑”, the “Δ MAP L-NAME 100 mg/kg (mmHg)” value is on record as −26.57 ± 6.76 mmHg and the “Δ MAP Control (mmHg)” value is −0.67 ± 2.83 mmHg.

For `O=[N+]([O-])O[C@H]1CO[C@H]2[C@@H]1OC[C@H]2O[N+](=O)[O-]` [isosorbide dinitrate], in assay [4], the “mortality among patients with chronic congestive heart failure” value is recorded as “reduced significantly”.
